In this data set the test system is CCRIS mutagenicity, Ames/micronucleus/aberration tests. As to the kind of experiment: CCRIS mutagenicity studies.
The mark [1] stands for this setting: Test System: AMES SALMONELLA TYPHIMURIUM, Strain/Indicator: TA98, Metabolic Activation: NONE, Method: STANDARD PLATE.
Where [2] appears, read: Test System: AMES SALMONELLA TYPHIMURIUM, Strain/Indicator: TA98, Metabolic Activation: RAT, LIVER, S-9, AROCLOR 1254, Method: STANDARD PLATE.
Where [3] appears, read: Test System: AMES SALMONELLA TYPHIMURIUM, Strain/Indicator: TA100, Metabolic Activation: NONE, Method: STANDARD PLATE.
Setting [4] is: Test System: AMES SALMONELLA TYPHIMURIUM, Strain/Indicator: TA100, Metabolic Activation: RAT, LIVER, S-9, AROCLOR 1254, Method: STANDARD PLATE.

The source made the active and inactive calls. No rule for the calls is given here.

Turning to `CCOC(=O)Nc1cccc(OC(=O)Nc2ccccc2)c1`, the mutagenic call by setting is: (Test System: Ames Salmonella typhimurium, Strain/Indicator: TA98, Metabolic Activation: None) “inactive; negative”; (Test System: Ames Salmonella typhimurium, Strain/Indicator: TA98, Metabolic Activation: Rat, Liver, S-9) “inactive; negative”; (Test System: Ames Salmonella typhimurium, Strain/Indicator: TA100, Metabolic Activation: None) “inactive; negative”; (Test System: Ames Salmonella typhimurium, Strain/Indicator: TA100, Metabolic Activation: Rat, Liver, S-9) “inactive; negative”; (Test System: Ames Salmonella typhimurium, Strain/Indicator: TA1535, Metabolic Activation: None) “inactive; negative”; (Test System: Ames Salmonella typhimurium, Strain/Indicator: TA1535, Metabolic Activation: Rat, Liver, S-9) “inactive; negative”. The mutagenic call is, setting by setting: (Test System: Ames Salmonella typhimurium, Strain/Indicator: TA1537, Metabolic Activation: None) “inactive; negative”; (Test System: Ames Salmonella typhimurium, Strain/Indicator: TA1537, Metabolic Activation: Rat, Liver, S-9) “inactive; negative”; (Test System: E. coli, Strain/Indicator: WP2, Metabolic Activation: None, Method: Not reported by DPR) “inactive; negative”; (Test System: E. coli, Strain/Indicator: WP2, Metabolic Activation: Rat, Liver, S-9, Method: Not reported by DPR) “inactive; negative”.
With `C=C(C)C(=O)OCC(CC)(COC(=O)C(=C)C)COC(=O)C(=C)C`, the mutagenic call is “inactive; negative” (Test System: AMES SALMONELLA TYPHIMURIUM, Strain/Indicator: TA98, Metabolic Activation: HAMSTER, LIVER, S-9, AROCLOR 1254, Method: STANDARD PLATE); “inactive; negative” under setting [1]; “inactive; negative” under setting [2]; “inactive; negative” (Test System: AMES SALMONELLA TYPHIMURIUM, Strain/Indicator: TA100, Metabolic Activation: HAMSTER, LIVER, S-9, AROCLOR 1254, Method: STANDARD PLATE); “inactive; negative” under setting [3]; “inactive; negative” under setting [4]. For the same compound, the mutagenic call is “inactive; negative” (Test System: AMES SALMONELLA TYPHIMURIUM, Strain/Indicator: TA1535, Metabolic Activation: HAMSTER, LIVER, S-9, AROCLOR 1254 (5-10%), Method: STANDARD PLATE); “active; positive” (Test System: AMES SALMONELLA TYPHIMURIUM, Strain/Indicator: TA1535, Metabolic Activation: HAMSTER, LIVER, S-9, AROCLOR 1254 (15-20%), Method: STANDARD PLATE); “active; positive” (Test System: AMES SALMONELLA TYPHIMURIUM, Strain/Indicator: TA1535, Metabolic Activation: HAMSTER, LIVER, S-9, AROCLOR 1254, Method: STANDARD PLATE); “inactive; negative” (Test System: AMES SALMONELLA TYPHIMURIUM, Strain/Indicator: TA1535, Metabolic Activation: NONE, Method: STANDARD PLATE); “inactive; negative” (Test System: AMES SALMONELLA TYPHIMURIUM, Strain/Indicator: TA1535, Metabolic Activation: RAT, LIVER, S-9, AROCLOR 1254, Method: STANDARD PLATE); “inactive; negative” (Test System: AMES SALMONELLA TYPHIMURIUM, Strain/Indicator: TA1537, Metabolic Activation: HAMSTER, LIVER, S-9, AROCLOR 1254, Method: STANDARD PLATE). Besides, the mutagenic call (Test System: AMES SALMONELLA TYPHIMURIUM, Strain/Indicator: TA1537, Metabolic Activation: NONE, Method: STANDARD PLATE) was “inactive; negative” and the mutagenic call (Test System: AMES SALMONELLA TYPHIMURIUM, Strain/Indicator: TA1537, Metabolic Activation: RAT, LIVER, S-9, AROCLOR 1254, Method: STANDARD PLATE) is “inactive; negative”.
As to `NC(=O)CCC(=O)Nc1cc(Cl)c(Cl)c(Cl)c1`, the mutagenic call under setting [1] is “inactive; negative”, the mutagenic call under setting [2] was “inactive; negative”, the mutagenic call under setting [3] was “inactive; negative” and the mutagenic call under setting [4] is “inactive; negative”.

(Values after PubChem BioAssay AID1259407 (Chemical Carcinogenesis Research Information System (CCRIS), 2018).)
